Test results from patent publication US20050163801A1, “Method of inducing apoptosis and compositions therefor” (Kyowa Engineering Co., Ltd., priority 2001, published 2005).

Experiments:
Assay type in all cases: cell-based
HL-60 cell lines = assay: Apoptosis inducing activity (Test 3), TUNEL method; conditions: culture for two days
Protocol: 3. Apoptosis inducing activity (Test 3): Measurement was performed using a terminal deoxynucleotidyl transferase (TdT)-mediated deoxyuridine triphosphate (dUTP)-biotin nick end-labeling method (TUNEL method). The TUNEL method is a method for identifying apoptosis on a tissue slice reported by Gavrieli et al. in 1992 (Yael Gavrieli et al., The Journal of Cell Biology, vol. 119, No.3, November, 1992, p. 493-501). The method is known to be a method which enables observation of apoptosis at the individual cell level at various states of morbidity and allows comparison with morphology changes. The TUNEL method was performed with HL-60 cell lines using Apoptosis in situ Detection Kit wako (Wako Pure Chemical Industries, Ltd.), according to the method of Gavrieli et al., supra.
The results of FIG. 9 show results measured for respective test groups. […] Based on the above results, cell death of HL60 cell lines by ABMK-22 are confirmed to be death caused by the induction of apoptosis.
For identifying the ingredient having the apoptosis induction activity in ABMK-22 obtained in Example 2, ABMK-22 was further purified and fractionated. The obtained ingredient was subjected to the method described in section “3. […]
Next, the apoptosis induction activity of a ly-ophilized powder of ABMK0415 and ABMK6873 were measured as described in section “3. […]

[1] = test system: dendric cells (DC) derived from human peripheral blood monocytes; assay: Immune activation activity: induction of dendritic cells from peripheral blood monocytes, CD80 expression by flow cytometry; conditions: for DCs with increase in expression of CD80: analysed on seventh day
Text: Dendritic cells are involved in the establishment of immunity. Dendritic cells may also be called arborescent cells, dendritic leukocyte, or D cells. This is the generic term for cell groups having dendritic form derived from myelocytes distributed in various tissue organs in the living body except for the brain. The cell groups include lymphoid dendritic cells, Langerhans cells, veil cells, inter-connected cells, and interstitional cells. Accompanying an inflammation response caused by invasion of foreign matter, the cells perform pinocytosis, and move from a local spot via the vas afferens to an associated lymph node or to the spleen through bloodstream. The cells are known to start an immune response after they reach a T cell-dependent region by presenting an antigen in a form combined with class II antigen and by activating specific T cells. Namely, the cells play an important role in the immune system. In the present example, the immune activation activity of ABMK0415 and ABMK6873 were confirmed by assaying the induction power of monocytes to dendritic cells.
Peripheral blood of two healthy people was used as a material with donor consent.
PBMC were separated from a whole blood specimen which was collected with heparinization by a Ficoll-Paque density centrifugal separation method.
ABMK0415 and ABMK6873 were used as test samples. ABMK0415 and ABMK6873 were respectively dissolved in culture media of cells used for tests (10% FCS added RPMI-1640, 5% human AB serum added RPMI-1640) such that each mixture has a concentration of 200 mg/ml. The mixtures were filter-sterilized through a filter having a pore diameter of 0.22 μm to obtain test samples.
An effect of immune activation of novel compounds was examined in vittro through induction power for dendric cells (DC) derived from human peripheral blood monocytes.
PBMC was processed with a dish treatment for one hour with a carbon dioxide gas incubator. Thus, a monocyte-rich attachment cell fraction was obtained. The cells obtained were cultured in 5% human AB serum added RPMI-1640 (NIKKEN BIOLOGICAL MEDICAL RESEARCH), in the presence of 500 U/ml of GM-CSF (DIACLONE Research) and IL-4(BD Biosciences).
For culturing, a dish (NUNC) having a diameter of 3.5 cm was used. On the sixth day of culture, Picibanil and the novel compound were added such that the final concentration is 0.1 KE/ml for Picibanil, and 200 μg/ml for ABMK0415and ABMK6873. Picibanil (Chugai Pharmaceutical Co., Ltd.) was used as a positive control which has a DC induction power. […]
All DCs in the dish were collected on the seventh day after the culture started. The surface antigen thereof was analyzed by flow cytometry using a monoclonal antibody (anti-CD80; BD Bioscience). […]

HL60 cell line [2] = assay: Cell differentiation inducing activity (Test 2), NBT reduction; conditions: used by itself; NBT reducing power
Protocol: 2. Cell differentiation inducing activity (Test 2): Evaluation was made using Nitro blue tetrazolium (NBT) reduction power. NBT reduction was performed in accordance with the method of S. J. Collins et al. (Int. J. Cancer: 25, pages 213-218 (1980)). In brief, the method is as follows: about 2×10^5 HL60 cells were pelleted, and washed in RPMI-1640 medium. Then, the cells were suspended in RPMI-1640 medium containing 0.1% NBT and 100 ng/ml of phorbol ester (TPA), and cultured for forty minutes at 37° C. The resultant culture was observed under microscope and cells containing blue-black deposits were assessed as differentiated cells. In the presence of ABMK-22 at various concentrations, HL60 cells were cultured for four days and the differentiation inducing power of ABMK-22 was measured. The results of measuring NBT reducing power, which is an indicator of differentiation of a HL60 cell line under each concentration, are shown in FIG. 7. […] At a concentration of 4 mg/mL, about 33% of the cells that were alive were differentiated.

HL60 cell line [3] = assay: Cell growth suppression activity (Test 1), cell number by counting chamber
Protocol: 1. Cell growth suppression activity (Test 1): For assay, the Collagen gel droplet embedded culture-drug sensitivity test (CD-DST method) and a counting chamber were used.
A method using a counting chamber was performed following the method described in Rinsho Kensaho Teiyo (Kanai's Manual of Clinical Laboratory Medicine), 30th Ed. (Aug. 20, 1993; Kanehara & Co., Ltd.; Tokyo).
Based on the results of measurement using HL60 cell lines, it became clear that the CD-DST method is not suitable for measuring the growth state of suspended cells. Therefore, the cell growth suppression activity was measured using a counting chamber.
First, growth of HL60 cell lines was examined in the presence of ABMK-22 at various concentrations to obtain a growth curve of the HL60 line. More specifically, an initial number of cells of HL 60 cell lines was set to be 200,000/ mL. ABMK-22 was added to have concentrations of 0.1, 0.25, 0.5, 0.75, 1, 2, 2.5, 3, 4and 5 mg/1 mL, respectively and cultured. The number of the cells was measured over time for four days.
Each of the symbols in FIG. 1 indicates the result of measurement of the number of the cells (number/ml) in the presence of ABMK-22 at the concentration of the number indicated in the lower part of FIG. 1 by the symbols. […]

## O=Cc1ccc(CO)n1CCCC(=O)O [ABMK0415, N-(3-carboxypropyl)-2-formyl-5-hydroxy-methylpyrrole]
HL-60 cell lines; 2.07×10^−4M
  cells in which apoptosis was induced (apoptosis positive cells): about 35%
[1]; 200 μg/ml added on sixth day
  DCs with increase in expression of CD80: about 20%

## CC1=C(/C=C/C(C)=C/C=C/C(C)=C/C(=O)O)C(C)(C)CCC1 [ATRA, all-trans retinoic acid]
HL60 cell line [2]
  concentration at which the agent by itself does not exhibit cell differentiation induction activity: ≤ 10^−9 M

## N[C@@H](CCC(=O)NNc1ccc(C=O)cc1)C(=O)O [ABMK6873]
HL-60 cell lines; 2.7×10^−4M
  cells in which apoptosis was induced (apoptosis positive cells): about 70%
[1]; 200 μg/ml added on sixth day
  expression induction of CD80 molecules: remarkably strong expression induction of CD80 molecules
  DCs with increase in expression of CD80: about 92%
[1]; compared with Picibanil
  DC inducing power: stronger than that of Picibanil
HL60 cell line [3]; 2.7×10^−4M
  growth of HL-60 cells: remarkably suppressed
HL60 cell line [3]; various concentrations (2.07×10^−6M to 2.07×10^−4M ABMK0415; 2.7×10^−6M to 2.7×10^−4M ABMK6873)
  growth of HL-60 cells: suppress growth of HL-60 cells in nearly a concentration-dependent manner

## C=C1/C(=C\C=C2/CCC[C@]3(C)[C@@H]([C@H](C)CCCC(C)(C)O)CC[C@@H]23)C[C@@H](O)C[C@@H]1O [VD3, 1α, 25(OH)2D3]
HL60 cell line [2]
  concentration at which the agent by itself does not exhibit cell differentiation induction activity: ≤ 10^−10 M
